The values below come from US20240270744A1 (Hoffmann-La Roche Inc., priority 2021, published 2024).

Assay [1] concerns the target human GABAA α1β3γ2 receptor (Homo sapiens (Human), UniProt P14867+P18507). In words: Radioligand binding assay, competition for [3H]Flumazenil, γ2-containing GABAA subtypes. The settings on record: read-out: Ki h-GABAA α1β3γ2. As to the method: The affinity of compounds at GABAA γ2 subunit-containing receptors was measured by competition for [^3H]Flumazenil (81.1 Ci/mmol; Roche) binding to HEK293F cells expressing human (transiently transfected) receptors of composition α1β3γ2.
Harvested pellets from HEK293F cells expressing the different GABAA γ2 receptor subtypes were resuspended in Mannitol Buffer pH 7.2-7.4 and processed as described above for the cells expressing the GABAA γ1 subunit-containing receptors.
Assays were incubated to equilibrium for 1 hour at 4° C. and harvested onto GF/C uni-filters (Packard) by filtration using a Packard harvester and washing with ice-cold wash buffer (50 mM Tris; pH 7.5). After anhydrousing, filter-retained radioactivity was detected by liquid scintillation counting. Ki values were calculated using Excel-Fit (Microsoft) and are the means of two determinations.

Another assay concerns the target h-GABA-A α2β2γ1 (Homo sapiens (Human), UniProt P47869+Q8N1C3). Description: Two-electrode voltage clamp electrophysiology in Xenopus oocytes expressing GABAA receptors. The settings on record: Table 2; for Efficacy (GABA) %: % modulation of GABA EC20 = 100*(Fold increase-1), compound at 30-fold Ki; for Fold increase h-GABA-A α2β2γ1 oocyte @ 30-fold Ki: GABA EC20, test compound at approx. 30-fold its Ki α2β2γ1, Xenopus oocytes, -80 mV. In kind it is cell-based. How it is done: Xenopus laevis oocytes at maturation stages V-VI were used for the expression of cloned mRNA encoding GABAA receptor subunits. Oocytes ready for RNA micro-injection were bought from Ecocyte, Castrop-Rauxel, Germany and stored in modified Barth's medium (composition in mM: NaCl 88, KCl 1, NaHCO3 2.4, HEPES 10, MgSO4 0.82, CaNO3 0.33, CaCl2 0.33, pH=7.5) at 20° C. until the experiment.
Oocytes were plated in 96-well plates for microinjection using the Roboinject automated instrument (MultiChannelSystems, Reutlingen, Germany). Approximately 50 nL of an aqueous solution containing the RNA transcripts for the subunits of the desired GABAA receptor subtype was injected into each oocyte. […] Oocytes were kept in modified Barth's medium (composition in mM: NaCl 88, KCl 1, NaHCO3 […], HEPES 10, MgSO4 0.82, CaNO3 0.33, CaCl2 0.33, pH=7.5) at 20° C. until the experiment.
Electrophysiological experiments were performed using the Roboocyte instrument (MultiChannelSystems, Reutlingen, Germany) on days 3 to 5 after the micro-injection of mRNA. During the experiment the oocytes were constantly superfused by a solution containing (in mM) NaCl 90, KCl 1, HEPES 5, MgCl2 1, CaCl2 1 (pH 7.4). Oocytes were impaled by two glass microelectrodes (resistance: […]) which were filled with a solution containing KCl 1M+K-acetate 1.5 M and voltage-clamped to −80 mV. The recordings were performed at room temperature using the Roboocyte two-electrode voltage clamp system (Multichannelsystem). After an initial equilibration period of 1.5 min GABA was added for 1.5 min at a concentration evoking approximately 20% of a maximal current response (EC20). After another rest interval of 2.5 min GABA was again added evoking a response of similar amplitude and shape. […] Current traces were recorded at a digitization rate of 10 Hz during and shortly before and after the GABA application.
Each compound and concentration was tested on at least 3 oocytes. Different oocytes were used for different compound concentrations.
For the analysis, the digitized current traces of the first and second GABA response were superimposed and, if necessary, rescaled to equal maximal amplitudes. The ratio between the two responses during the time interval of test compound application was calculated point by point. The extremum of the resulting “ratio trace” was taken as the efficacy (“Fold increase”) of the compound expressed as “% modulation of GABA EC20” (100*(Fold increase−1)).
(In general: Two-electrode voltage clamp is typically applied to oocytes expressing channels or transporters.)

The target of assay [2] is human GABAA α1β2γ1 receptor (Homo sapiens (Human), UniProt P14867+Q8N1C3). In words: Radioligand binding assay, competition for [3H]RO7239181, γ1-containing GABAA subtypes.
[3] abbreviates: Table 1, [3H]Flumazenil displacement, HEK293F cells, mean of two determinations.
[4] abbreviates: Table 1, [3H]RO7239181 displacement, membranes from HEK293F cells, mean of two determinations.
Setting [5] is: Table 3, reference compounds comparison.

Where two headings read alike, the source gives them in different places.

Usually Ki stands for the dissociation constant of the complex between target and ligand, obtained from inhibition or displacement.

For the compound `C[C@H](O)CNC(=O)c1nc2n(n1)-c1cnc(C(F)(F)F)c(Cl)c1C(c1c(F)cccc1F)=N[C@H]2C` [Example 14, (7S)-11-chloro-9-(2,6-difluorophenyl)-N-[(2S)-2-hydroxypropyl]-7-methyl-12-(trifluoromethyl)-2,3,5,8,13-pentazatricyclo[8.4.0.02,6]tetradeca-1(10),3,5,8,11,13-hexaene-4-carboxamide], the Ki in assay [1] (setting [3]) turned out to be 8.76 µM. Besides, on h-GABA-A α2β2γ1, the “Efficacy (GABA) %” value was 158% and the “Fold increase h-GABA-A α2β2γ1 oocyte @ 30-fold Ki” value worked out at 2.58. The affinity in assay [2] (setting [4]) corresponds to a Ki of 0.0918 µM.

Turning to `C[C@@H]1N=C(c2c(F)cccc2F)c2c(cnc(C(F)(F)F)c2Cl)-n2nc(C(=O)N3CCS(=O)(=O)CC3)nc21` [Example 11, [(7S)-11-chloro-9-(2,6-difluorophenyl)-7-methyl-12-(trifluoromethyl)-2,3,5,8,13-pentazatricyclo[8.4.0.02,6]tetradeca-1(10),3,5,8,11,13-hexaen-4-yl]-(1,1-dioxo-1,4-thiazinan-4-yl)methanone], in assay [1] (setting [3]), the Ki was 7.89 µM. On h-GABA-A α2β2γ1, the “Efficacy (GABA) %” value was 114% and the “Fold increase h-GABA-A α2β2γ1 oocyte @ 30-fold Ki” value is 2.14. Further, the affinity in assay [2] (setting [4]), expressed as Ki, was 0.0458 µM.

In the case of `C[C@@H]1N=C(c2c(F)cccc2F)c2c(cnc(C(F)(F)F)c2Cl)-n2nc(C(=O)NC[C@@H](C)O)nc21` [Example 16, (7S)-11-chloro-9-(2,6-difluorophenyl)-N-[(2R)-2-hydroxypropyl]-7-methyl-12-(trifluoromethyl)-2,3,5,8,13-pentazatricyclo[8.4.0.02,6]tetradeca-1(10),3,5,8,11,13-hexaene-4-carboxamide], the Ki in assay [1] (setting [3]) turned out to be 9.47 µM. Also, at h-GABA-A α2β2γ1, the “Efficacy (GABA) %” value was 166% and the “Fold increase h-GABA-A α2β2γ1 oocyte @ 30-fold Ki” value came out at 2.66. In assay [2] (setting [4]), this compound yielded an inhibition constant (Ki) of 0.157 µM.

Take `Cc1nnc2n1-c1cnc(C(F)(F)F)c(Cl)c1C(c1c(F)cccc1Cl)=N[C@H]2C` [Example 17, (7S)-11-chloro-9-(2-chloro-6-fluoro-phenyl)-3,7-dimethyl-12-(trifluoromethyl)-2,4,5,8,13-pentazatricyclo[8.4.0.02,6]tetradeca-1(10),3,5,8,11,13-hexaene]: the inhibitory constant (Ki) in assay [1] (setting [3]) came out at 4.87 µM. In addition, on h-GABA-A α2β2γ1, the “Efficacy (GABA) %” value is recorded as 91% and the “Fold increase h-GABA-A α2β2γ1 oocyte @ 30-fold Ki” value was 1.91. In assay [2] (setting [4]), this compound yielded a Ki of 0.0344 µM.

`C[C@@H]1N=C(c2c(F)cccc2F)c2c(cnc(C(F)(F)F)c2Cl)-n2cc(C(=O)NCCO)nc21` [Example 19, (7S)-11-chloro-9-(2,6-difluorophenyl)-N-(2-hydroxyethyl)-7-methyl-12-(trifluoromethyl)-2,5,8,13-tetrazatricyclo[8.4.0.02,6]tetradeca-1(10),3,5,8,11,13-hexaene-4-carboxamide]: in assay [1] (setting [3]), the inhibitory constant (Ki) turned out to be 5.11 µM. Also, at h-GABA-A α2β2γ1, the “Efficacy (GABA) %” value was determined as 170% and the “Fold increase h-GABA-A α2β2γ1 oocyte @ 30-fold Ki” value was 2.70. Moreover, the Ki in assay [2] (setting [4]) stood at 0.0489 µM.

Take `C[C@@H]1N=C(c2c(F)cccc2F)c2c(cnc(C(F)(F)F)c2Cl)-n2nc(C(=O)N3CC(C)(O)C3)nc21` [Example 10, [(7S)-11-chloro-9-(2,6-difluorophenyl)-7-methyl-12-(trifluoromethyl)-2,3,5,8,13-pentazatricyclo[8.4.0.02,6]tetradeca-1(10),3,5,8,11,13-hexaen-4-yl]-(3-hydroxy-3-methyl-azetidin-1-yl)methanone]: the Ki in assay [1] (setting [3]) was 4.61 µM; in assay [1] (setting [5]) it was 4.61 µM; in assay [2] (setting [4]), 0.0805 µM; in assay [2] (setting [5]), 0.0805 µM. For the same compound, the “Efficacy (GABA) %” value at h-GABA-A α2β2γ1 was 82%. The “Fold increase h-GABA-A α2β2γ1 oocyte @ 30-fold Ki” value at h-GABA-A α2β2γ1 came to 1.82.

In the case of `C[C@@H]1N=C(c2c(F)cccc2F)c2c(cnc(C(F)(F)F)c2Cl)-n2nc(C(=O)NCCO)nc21` [Example 15, (7S)-11-chloro-9-(2,6-difluorophenyl)-N-(2-hydroxyethyl)-7-methyl-12-(trifluoromethyl)-2,3,5,8,13-pentazatricyclo[8.4.0.02,6]tetradeca-1(10),3,5,8,11,13-hexaene-4-carboxamide], the Ki in assay [1] (setting [3]) turned out to be 9.47 µM. At h-GABA-A α2β2γ1, the “Efficacy (GABA) %” value was 146% and the “Fold increase h-GABA-A α2β2γ1 oocyte @ 30-fold Ki” value is recorded as 2.46. For the same compound, the affinity in assay [2] (setting [4]), expressed as Ki, was 0.114 µM.
